{"source": "patent US20140325707A1", "about": "“GROWTH ENHANCEMENT OF PLANTS” (Yissum Research Development Company of the Hebrew …, priority 2011, published 2014)", "key": {"[1]": {"tested_on": "tomato (Solanum lycopersicum) cv Moneymaker", "assay": "Growth assay of tomato seedlings from seeds primed with IR-PRN", "format": "in vivo", "description": "Seeds of tomato (Solanum lycopersicum) cv Moneymaker were primed with a priming solution containing 25% PEG without (control) or with IR-PRN.\nThe seeds were sown in randomly placed small tagged pots containing potting mixture, in a glasshouse at a night and day temperature of 15-18° C. and 22-27° C., respectively. Plant height, weight and dry weight were measured when the plant reached 3-5 true leaves. Typically the seedlings were 4-5 weeks old."}, "Rhizoctonia solani": {"tested_on": "Rhizoctonia solani", "assay": "Bioassay for inhibition of Rhizoctonia solani in vitro", "format": "cell-based", "settings": "plant-extracted, HPLC-purified PRN; 28° C., 3 days", "description": "R. solani was cultured on potato dextrose agar at 28° C. A disk (30 mm in diameter) of R. solani-containing agar was transferred to another Petri dish containing potato dextrose agar and 10 μl of HPLC elution buffer (negative control), 10 μl of various plant extracts, or 10 μl containing 0.2 mg of synthetic PRN in elution buffer (Sigma, positive control). Inhibition of fungal growth was determined after incubation at 28° C. for 3 days."}, "R. solani": {"tested_on": "R. solani", "assay": "Assay for R. solani resistance (damping-off disease) of tomato plants", "format": "in vivo", "settings": "control plants wilted within 2 weeks", "description": "Roots of tomato (Solanum lycopersicum) seedlings were immersed in a water solution of IL-60-BS and IR-PRN or IR-PRN-GFP (1 μg/plantlet) until the entire solution was sucked up by the plants. The plants were then potted and kept in the greenhouse at 24° C. Tomato seedlings, 2 weeks after application of IL-60-BS and IR-PRN, were transferred to pots with 0.5 kg of soil mixed with 0.5 g of R. solani mycelium. Control plants (not carrying PRN) were similarly treated. Plants were kept for 2 to 3 weeks at 24° C. until symptom appearance."}, "[2]": {"settings": "plant expressing PRN, seedlings at 3-5 true leaves, 4-5 weeks old"}}, "data": [{"smiles": "O=[N+]([O-])c1c(Cl)cccc1-c1c[nH]cc1Cl", "note": "[PRN, 3-chloro-4-(2′-nitro-3′-chlorophenyl)-pyrrole]", "values": [{"measurement": "Dry weight", "setting": "[1]; [2]", "result": 3.6, "unit": "gr"}, {"measurement": "Dry weight (% of fresh weight)", "setting": "[1]; [2]", "result": "42.7 % of fresh weight"}, {"measurement": "Fresh weight", "setting": "[1]; [2]", "result": 9.2, "unit": "gr"}, {"measurement": "Height", "setting": "[1]; [2]", "result": 11, "unit": "cm"}, {"measurement": "Growth Enhancement (%), Dry weight", "setting": "[1]; relative to control plant", "result": 276.9, "unit": "%"}, {"measurement": "Growth Enhancement (%), Dry weight (% of fresh weight)", "setting": "[1]; relative to control plant", "result": 159.9, "unit": "%"}, {"measurement": "Growth Enhancement (%), Fresh weight", "setting": "[1]; relative to control plant", "result": 191.7, "unit": "%"}, {"measurement": "Growth Enhancement (%), Height", "setting": "[1]; relative to control plant", "result": 134.1, "unit": "%"}, {"measurement": "Inhibition of growth of R. solani", "setting": "Rhizoctonia solani", "result": "inhibitory"}, {"measurement": "State of plants in R. solani-infested soil", "setting": "R. solani", "result": "remained healthy"}]}]}
